Experimental findings from publication PMC10764104, “Discovery of Molecular Glue Degraders via Isogenic Morphological Profiling” (ACS Chemical Biology, 2023) are described below.

The target of one data set is T1, GSPT2 G566N (Homo sapiens, UniProt Q8IYD1, G566N).
T1 construct: expressed in transfected cells; host or cells: RKO cells, lentiviral transduction, puromycin-selected
The data set is described as follows: Western blot (HA-tag) of G-loop mutant GSPT2 in RKO cells. Format: cell-based. The following applies: RKO cells stably overexpressing HA-GSPT2 G566N, 16 h; 10 μM FL2-14 or 10 nM CC-885. The procedure:
Figure 3 FL2-14 is a selective GSPT2 molecular glue degrader. (A) Structure of FL2-14 comprising fluorosulfate scaffold FL2 (black) and tail group modification 14 (blue). (B) DMSO-normalized quantitative proteomics after 16 h of treatment with FL2-14 (10 μM) in RKO WT (n = 2). […] (C) Structural alignment of AlphaFold models of GSPT1 (AF-P15170-F1-model_v4 in gray) and GSPT2 (AF-Q8IYD1-F1-model_v4 in blue). (D) Validation of GSPT2 degradation by FL2-14. […] (E) Dose–response of FL2-14 in RKO and HEK293T cells. Cells were treated with the FL2-14 (0 to 10 μM) for 16 h. (F) Degradation of GSPT2^WT or GSPT2^G566N.
Prediction of the G‐loop degron sequence in GSPT2
We first compiled all CRBN degron sequences with known crystal structures (Table S 2). We subsequently discarded 6UML as its degron sequence included an alanine instead of the typical glycine observed in the seventh amino acid residue of other degron sequences, leaving six degron sequences. We then scanned the latest AlphaFold structure of GSPT215 for a potential stretch of 10 amino acids that would align best with each degron sequence. We yielded the same stretch of amino acid residues from position 560 to 569 ([…]) and RMSD values under 0.5 Å.
Table S 2: List of crystal structures used for the computational prediction of the G‐loop degron sequence […]
PDB code Resolution (Å) Chain Segment Sequence Reference
Analysis of G‐loop mutation […]
(In western blotting, separated proteins are transferred to a membrane and probed.)

Data set [1] can be described thus: CellTiter-Glo cytotoxicity of selected compounds (manual, 72 h). In kind it is cell-based, human. As to conditions: human, up to 10 μM. The procedure: Assessment of gene expression and essentiality in RKO WT
Fluorescence Polarization‐based competition assay
EC50 values were calculated with GraphPad Prism […]
the FP value of free tracer. […]
instructions. […] For the screening of the whole SuFEx
Data visualization was done with seaborn
(https://seaborn.pydata.org, version 0.12.2). […]
compounds. (F) Analysis of the cytotoxicity of compounds with treatment‐centric features related to FL2‐ […]
Synthesis and in Vitro Evaluation of Diverse Heterocyclic Diphenolic Compounds as Inhibitors of DYRK1A.
(7) Zhang, J.‐H.; Chung, T. D. Y.; Oldenburg, K. R. A Simple Statistical Parameter for Use in Evaluation and Validation of High Throughput Screening Assays. SLAS Discov.
For orientation: Cellular ATP, detected with luciferase, serves as a proxy for viable cell number.

T1 sequence (Q8IYD1 whole entry G566N): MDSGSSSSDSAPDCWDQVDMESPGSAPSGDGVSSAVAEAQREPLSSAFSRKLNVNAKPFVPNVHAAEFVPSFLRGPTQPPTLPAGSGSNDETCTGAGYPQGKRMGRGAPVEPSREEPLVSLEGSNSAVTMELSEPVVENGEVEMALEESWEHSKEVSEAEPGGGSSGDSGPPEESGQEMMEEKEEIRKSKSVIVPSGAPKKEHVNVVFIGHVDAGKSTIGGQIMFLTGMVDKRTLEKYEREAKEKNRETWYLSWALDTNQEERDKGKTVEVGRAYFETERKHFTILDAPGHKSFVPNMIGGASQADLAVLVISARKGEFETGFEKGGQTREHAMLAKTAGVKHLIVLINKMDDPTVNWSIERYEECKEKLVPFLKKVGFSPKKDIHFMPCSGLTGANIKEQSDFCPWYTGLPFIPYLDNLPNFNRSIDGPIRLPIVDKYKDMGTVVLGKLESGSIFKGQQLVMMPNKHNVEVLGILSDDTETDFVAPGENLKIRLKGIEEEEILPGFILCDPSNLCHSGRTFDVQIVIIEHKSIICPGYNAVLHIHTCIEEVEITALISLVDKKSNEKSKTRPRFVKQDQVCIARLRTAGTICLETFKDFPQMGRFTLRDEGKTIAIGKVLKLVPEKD

Consider `CN(Cc1ncc(C2CC2)o1)S(=O)(=O)Oc1ccc(Nc2ccc3c(c2)C(=O)N(C2CCC(=O)NC2=O)C3=O)cc1` (stereo not drawn) [FL2-14], for which the “degradation of HA-tagged GSPT2 G566N (glycine of G-loop replaced by asparagine)” value on GSPT2 G566N is recorded as “rescued degradation of GSPT2”. Also, the half-maximal effective concentration (EC50) at 72 h in data set [1] (HEK293T cells) and in data set [1] (RKO WT cells) was more than 10 µM in each case.
